The values that follow are results of earlier work, collected in US8071623B2, “Amide substituted indazoles as poly(ADP-ribose)polymerase(PARP) inhibitors” (Instituto di Ricerche di Biologia Molecolare P. Angeletti …, priority 2007, dated 2011).

SMILES strings stand for the structures.

The data set deals with ischemia and reperfusion of the heart. The following applies: rabbits.

On to `NC(=O)c1cccc(N)c1` [3-amino-benzamide], for which, under “single injection 10 mg/kg, one minute before occlusion or one minute before reperfusion”, the “reductions in infarct size in the heart” value is listed as 32-42%.
For `Oc1cccc2c(O)nccc12` [1,5-dihydroxyisoquinoline], for the setting “single injection 1 mg/kg”, the reduced infarct size was 38-48%.
